Assay results reported in ChEMBL document CHEMBL1130570, “Cyclic saligenyl phosphotriesters of 2,3-dideoxy-2,3-didehydrothymidine (d4T) a new pro-nucleotide approach” (Bioorg Med Chem Lett, 1997).
Values after ≈ are worked out from the molar mass of the structure shown.

Tests used:
[1] = Partition coefficient in 1-octanol / phosphate buffer at pH 6.8; type: physicochemical; settings: octanol/water
CCRF-CEM [2] = experiment: Effective concentration that causes 50 % inhibition of HIV-2 in CEM/TK- cells, was determined.; type: functional, cell-based; settings: Homo sapiens
CCRF-CEM [3] = experiment: Effective concentration that causes 50 % inhibition of HIV-2 in CEM/0 cells, was determined.; type: functional, cell-based; settings: Homo sapiens
CCRF-CEM [4] = experiment: Effective concentration that causes 50 % inhibition of HIV-1 in CEM/0 cells, was determined.; type: functional, cell-based; settings: Homo sapiens

SMILES | PC [1] | EC50 (CCRF-CEM [2]) [µg/mL] | EC50 (CCRF-CEM [3]) [µg/mL] | EC50 (CCRF-CEM [4]) [µg/mL]
Cc1ccc2c(c1)COP(=O)(OC[C@@H]1C=C[C@H](n3cc(C)c(=O)[nH]c3=O)O1)O2 (some centres undefined) | 5.4 | – | – | –
Cc1cn([C@H]2C=C[C@@H](COP3(=O)OCc4cc(Cl)ccc4O3)O2)c(=O)[nH]c1=O (some centres undefined) | 7.7 | 20 (≈ 46.9 µM) | 0.25 (≈ 0.586 µM) | 0.18 (≈ 0.422 µM)
Cc1cn([C@H]2C=C[C@@H](COP3(=O)OCc4cc([N+](=O)[O-])ccc4O3)O2)c(=O)[nH]c1=O (some centres undefined) | 1.5 | 40 (≈ 91.5 µM) | 0.4 (≈ 0.915 µM) | 0.29 (≈ 0.663 µM)
Cc1cn([C@H]2C=C[C@@H](COP3(=O)OCc4ccccc4O3)O2)c(=O)[nH]c1=O (some centres undefined) | 1.9 | – | – | –
Cc1cn([C@H]2C=C[C@@H](CO)O2)c(=O)[nH]c1=O [STAVUDINE] | 0.15 | 45 (≈ 201 µM) | 1.45 (≈ 6.47 µM) | 0.4 (≈ 1.78 µM)
